Starred links: 1 amine or outer side, 2 acyl side, 3 side chain; linkers in the order of their positions; H or OH if unused. Non-standard residues stand in square brackets, D forms with d. Residues, ends and D or L forms follow the SMILES beside them. Groups on a side chain read outwards from the residue. No end group written: not given here. *: point of attachment. C20 diacid = O=C(O)CCCCCCCCCCCCCCCCCCC(=O)*; C18 diacid = O=C(O)CCCCCCCCCCCCCCCCC(=O)*; γGlu = O=C(O)[C@H](CCC(=O)[*:2])N[*:1]; Palmitoyl = CCCCCCCCCCCCCCCC(=O)*; AEEA = NCCOCCOCC(=O)O; Aib = CC(C)(N)C(=O)O
B1: peptide of SEQ ID NO: 171 (peptide)
peptide: IVLSLD[dV]PIKLK([AEEA-AEEA-γGlu-γGlu-C18 diacid])QILLKQERQK[Aib]QREQAEKNKQILAQV-NH2
modifications: N-terminus assumed
SMILES: CC[C@H](C)[C@H](N)C(=O)N[C@H](C(=O)N[C@@H](CC(C)C)C(=O)N[C@@H](CO)C(=O)N[C@@H](CC(C)C)C(=O)N[C@@H](CC(=O)O)C(=O)N[C@@H](C(=O)N1CCC[C@H]1C(=O)N[C@H](C(=O)N[C@@H](CCCCN)C(=O)N[C@@H](CC(C)C)C(=O)N[C@@H](CCCCNC(=O)COCCOCCNC(=O)COCCOCCNC(=O)CC[C@H](NC(=O)CC[C@H](NC(=O)CCCCCCCCCCCCCCCCC(=O)O)C(=O)O)C(=O)O)C(=O)N[C@@H](CCC(N)=O)C(=O)N[C@H](C(=O)N[C@@H](CC(C)C)C(=O)N[C@@H](CC(C)C)C(=O)N[C@@H](CCCCN)C(=O)N[C@@H](CCC(N)=O)C(=O)N[C@@H](CCC(=O)O)C(=O)N[C@@H](CCCNC(=N)N)C(=O)N[C@@H](CCC(N)=O)C(=O)N[C@@H](CCCCN)C(=O)NC(C)(C)C(=O)N[C@@H](CCC(N)=O)C(=O)N[C@@H](CCCNC(=N)N)C(=O)N[C@@H](CCC(=O)O)C(=O)N[C@@H](CCC(N)=O)C(=O)N[C@@H](C)C(=O)N[C@@H](CCC(=O)O)C(=O)N[C@@H](CCCCN)C(=O)N[C@@H](CC(N)=O)C(=O)N[C@@H](CCCCN)C(=O)N[C@@H](CCC(N)=O)C(=O)N[C@H](C(=O)N[C@@H](CC(C)C)C(=O)N[C@@H](C)C(=O)N[C@@H](CCC(N)=O)C(=O)N[C@H](C(N)=O)C(C)C)[C@@H](C)CC)[C@@H](C)CC)[C@@H](C)CC)C(C)C)C(C)C
B2: peptide of SEQ ID NO: 172 (peptide)
peptide: IVLSLD[dV]PIKLK([AEEA-AEEA-γGlu-γGlu-C20 diacid])QILLKQERQK[Aib]QREQAEKNKQILAQV-NH2
modifications: N-terminus assumed
SMILES: CC[C@H](C)[C@H](N)C(=O)N[C@H](C(=O)N[C@@H](CC(C)C)C(=O)N[C@@H](CO)C(=O)N[C@@H](CC(C)C)C(=O)N[C@@H](CC(=O)O)C(=O)N[C@@H](C(=O)N1CCC[C@H]1C(=O)N[C@H](C(=O)N[C@@H](CCCCN)C(=O)N[C@@H](CC(C)C)C(=O)N[C@@H](CCCCNC(=O)COCCOCCNC(=O)COCCOCCNC(=O)CC[C@H](NC(=O)CC[C@H](NC(=O)CCCCCCCCCCCCCCCCCCC(=O)O)C(=O)O)C(=O)O)C(=O)N[C@@H](CCC(N)=O)C(=O)N[C@H](C(=O)N[C@@H](CC(C)C)C(=O)N[C@@H](CC(C)C)C(=O)N[C@@H](CCCCN)C(=O)N[C@@H](CCC(N)=O)C(=O)N[C@@H](CCC(=O)O)C(=O)N[C@@H](CCCNC(=N)N)C(=O)N[C@@H](CCC(N)=O)C(=O)N[C@@H](CCCCN)C(=O)NC(C)(C)C(=O)N[C@@H](CCC(N)=O)C(=O)N[C@@H](CCCNC(=N)N)C(=O)N[C@@H](CCC(=O)O)C(=O)N[C@@H](CCC(N)=O)C(=O)N[C@@H](C)C(=O)N[C@@H](CCC(=O)O)C(=O)N[C@@H](CCCCN)C(=O)N[C@@H](CC(N)=O)C(=O)N[C@@H](CCCCN)C(=O)N[C@@H](CCC(N)=O)C(=O)N[C@H](C(=O)N[C@@H](CC(C)C)C(=O)N[C@@H](C)C(=O)N[C@@H](CCC(N)=O)C(=O)N[C@H](C(N)=O)C(C)C)[C@@H](C)CC)[C@@H](C)CC)[C@@H](C)CC)C(C)C)C(C)C

What was measured:
CRF1R receptor = target: T1, CRF1R receptor (Homo sapiens, UniProt P34998); assay: cAMP activity at anti-target CRF1R, CRF1R-overexpression CHO cell line (Example 9); assay type: cell-based; conditions: CRF1R-overexpression CHO cell line; for EC50: 0% HSA; for Emax: read-out: Emax (%)
T1 construct: host or cells: CHO-K1 clone 2
T1 sequence (P34998 24-415): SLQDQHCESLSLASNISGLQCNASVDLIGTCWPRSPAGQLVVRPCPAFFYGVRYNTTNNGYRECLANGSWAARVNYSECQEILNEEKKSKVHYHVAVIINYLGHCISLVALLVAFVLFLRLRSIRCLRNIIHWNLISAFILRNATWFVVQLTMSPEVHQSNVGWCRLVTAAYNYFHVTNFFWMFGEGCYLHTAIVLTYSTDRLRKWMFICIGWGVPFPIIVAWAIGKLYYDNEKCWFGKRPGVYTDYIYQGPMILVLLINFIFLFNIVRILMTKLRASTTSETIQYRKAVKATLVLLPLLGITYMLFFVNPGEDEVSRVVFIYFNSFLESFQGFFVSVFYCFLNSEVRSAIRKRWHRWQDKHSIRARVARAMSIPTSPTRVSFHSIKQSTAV
Description: Cells were grown in a T175 culture flask placed at 37° C. to near confluence in medium (DMEM/10% FBS) and collected in 2 ml vials in cell culture medium containing 10% DMSO in a concentration of 10-50 million cells/ml. Each vial contained 1.8 ml cells. The vials were slowly frozen to −80° C. in isopropanol and then transferred in liquid nitrogen for storage. Prior to use, frozen cells were thawed quickly at 37° C. and washed (5 min at 900 rpm) with 20 ml cell buffer (1×HBSS; 20 mM HEPES; 0% or 0.1% HSA). Cells were resuspended in assay buffer (cell buffer plus 2 mM IBMX) and adjusted to a cell density of 1 million cells/ml. For measurement, 5 μl cells (final […]) and 5 μL of test compound were added to a 384-well plate, followed by incubation for 30 minutes at room temperature.
The CAMP content of cells was determined using a kit from Cisbio Corp. (cat. no. 62AM4PEC) based on HTRF (Homogenous Time Resolved Fluorescence). […] The percent activity value (E %) was calculated by setting 1000 nM of urocortin 2 (UCN2) as 100%.
A CRF1R-overexpression CHO cell line was used in this study.

human CRF2α receptor = target: T2, human CRF2α receptor (Homo sapiens, UniProt Q13324); assay: cAMP agonism at human CRF2 α receptor in TeloHEAC cells (Example 7); assay type: cell-based; conditions: cAMP HTRF, TeloHEAC cells stably expressing human CRF2 α, 0% HSA; read-out: EC50 [nM], 0% HSA
T2 construct: expressed in transfected cells; host or cells: TeloHEAC
T2 sequence (Q13324 1-411): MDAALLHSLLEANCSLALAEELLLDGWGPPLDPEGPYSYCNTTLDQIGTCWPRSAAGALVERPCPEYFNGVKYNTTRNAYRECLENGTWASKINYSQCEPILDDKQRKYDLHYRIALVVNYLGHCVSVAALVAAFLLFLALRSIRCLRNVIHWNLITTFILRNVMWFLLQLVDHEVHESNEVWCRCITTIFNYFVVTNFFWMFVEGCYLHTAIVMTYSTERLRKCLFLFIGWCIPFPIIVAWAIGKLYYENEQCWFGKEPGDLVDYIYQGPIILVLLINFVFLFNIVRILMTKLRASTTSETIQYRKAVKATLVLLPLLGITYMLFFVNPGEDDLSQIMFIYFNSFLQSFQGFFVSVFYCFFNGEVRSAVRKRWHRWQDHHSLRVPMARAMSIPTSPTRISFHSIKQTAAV
Summary of the method: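 HTRF ratio 665/620 nm, read 1 h after lysis reagents, reports cAMP. Cells: thawed stocks, 2000/well, 30 min RT with compound in HBSS, 20 mM HEPES, 0 or 0.1% HSA, 2 mM IBMX. Activity normalised to UCN2 1000 nM = 100%; EC50 from half-maximal activation.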

[1] = target: T3, anti-target CRF1R receptor (UniProt P34998 24-415, limits assumed); assay: cell-based or functional assay
T3 sequence (looked up): T1 sequence (P34998 24-415)

Row | Molecule | EC50 (CRF1R receptor) [nM] | Emax (CRF1R receptor) [%] | EC50 (human CRF2α receptor) [nM] | EC50[nM] 0% HSA (cAMP, CRF1R-overexpression CHO cells) [1] [nM] | Emax (%) (cAMP, CRF1R-overexpression CHO cells) [1]
1 | CCCCCCCCCCCCCCCC(=O)N[C@@H](CCC(=O)NCCCC[C@H](NC(=O)[C@H](CC(C)C)NC(=O)CNC(=O)[C@@H](NC(=O)[C@@H]1CCCN1C(=O)[C@@H](NC(=O)[C@H](CC(=O)O)NC(=O)[C@H](CC(C)C)NC(=O)[C@H](CO)NC(=O)[C@H](CC(C)C)NC(=O)[C@@H](NC(=O)[C@@H](N)[C@@H](C)CC)C(C)C)C(C)C)[C@@H](C)CC)C(=O)N[C@@H](CCC(N)=O)C(=O)N[C@@H](CCCCN)C(=O)N[C@@H](CC(C)C)C(=O)N[C@@H](CC(C)C)C(=O)N[C@@H](CCCCN)C(=O)N[C@@H](CCC(N)=O)C(=O)N[C@@H](CCC(N)=O)C(=O)N[C@@H](CCCNC(=N)N)C(=O)N[C@@H](CCC(N)=O)C(=O)N[C@@H](CCCNC(=N)N)C(=O)N[C@@H](CCCCN)C(=O)N[C@@H](CCC(=O)O)C(=O)N[C@@H](CCCNC(=N)N)C(=O)N[C@@H](CCC(N)=O)C(=O)N[C@@H](CCC(N)=O)C(=O)N[C@@H](C)C(=O)N[C@@H](CCC(=O)O)C(=O)N[C@H](C(=O)N[C@@H](CC(N)=O)C(=O)N[C@@H](C)C(=O)N[C@@H](CCCNC(=N)N)C(=O)N[C@H](C(=O)N[C@@H](CC(C)C)C(=O)N[C@@H](C)C(=O)N[C@@H](CCCNC(=N)N)C(=O)N[C@H](C(N)=O)C(C)C)[C@@H](C)CC)[C@@H](C)O)C(=O)O [compound 5] (H-IVLSLDVPIGLK([γGlu-Palmitoyl])QKLLKQQRQRKERQQAETNARILARV-NH2; N-terminus assumed) | > 1000 | 37.4 | 0.04 |  | 
2 | CCCCCCCCCCCCCCCC(=O)N[C@@H](CCC(=O)NCCCC[C@H](NC(=O)[C@@H](NC(=O)[C@H](CCCCN)NC(=O)[C@@H](NC(=O)[C@@H]1CCCN1C(=O)[C@@H](NC(=O)[C@H](CC(=O)O)NC(=O)[C@H](CC(C)C)NC(=O)[C@H](CO)NC(=O)[C@H](CC(C)C)NC(=O)[C@@H](NC(=O)[C@@H](N)Cc1ccccc1)[C@@H](C)O)C(C)C)[C@@H](C)O)[C@@H](C)CC)C(=O)N[C@@H](CCC(N)=O)C(=O)N[C@@H](CCCCN)C(=O)N[C@@H](CC(C)C)C(=O)N[C@@H](CC(C)C)C(=O)N[C@@H](CCCCN)C(=O)N[C@@H](CCC(N)=O)C(=O)N[C@@H](CCC(=O)O)C(=O)N[C@@H](CCCCN)C(=O)N[C@@H](CCC(N)=O)C(=O)N[C@@H](CCCCN)C(=O)N[C@@H](CCCCN)C(=O)N[C@@H](CCC(N)=O)C(=O)N[C@@H](CCCNC(=N)N)C(=O)N[C@@H](CCC(N)=O)C(=O)N[C@@H](CCCCN)C(=O)N[C@@H](C)C(=O)N[C@@H](CCCCN)C(=O)N[C@H](C(=O)N[C@@H](C)C(=O)N[C@@H](CCCCN)C(=O)N[C@@H](CCC(N)=O)C(=O)N[C@H](C(=O)N[C@@H](CC(C)C)C(=O)N[C@@H](CCC(=O)O)C(=O)N[C@@H](CCC(N)=O)C(=O)N[C@H](C(N)=O)C(C)C)[C@@H](C)CC)[C@@H](C)O)C(=O)O [compound 9] (H-FTLSLDVPTKIK([γGlu-Palmitoyl])QKLLKQEKQKKQRQKAKTAKQILEQV-NH2) | > 1000 | 14.9 |  |  | 
3 | CCCCCCCCCCCCCCCC(=O)N[C@@H](CCC(=O)NCCCC[C@H](NC(=O)[C@@H](NC(=O)[C@H](CCCCN)NC(=O)[C@@H](NC(=O)[C@@H]1CCCN1C(=O)[C@@H](NC(=O)[C@H](CC(=O)O)NC(=O)[C@H](CC(C)C)NC(=O)[C@H](CO)NC(=O)[C@H](CC(C)C)NC(=O)[C@@H](NC(=O)[C@@H](N)Cc1ccccc1)[C@@H](C)O)C(C)C)[C@@H](C)O)[C@@H](C)CC)C(=O)N[C@@H](CCC(N)=O)C(=O)N[C@@H](CCCCN)C(=O)N[C@@H](CC(C)C)C(=O)N[C@@H](CC(C)C)C(=O)N[C@@H](CCCCN)C(=O)N[C@@H](CCC(N)=O)C(=O)N[C@@H](CCC(=O)O)C(=O)N[C@@H](CCCCN)C(=O)N[C@@H](CCC(N)=O)C(=O)N[C@@H](CCCNC(=N)N)C(=O)N[C@@H](CCCCN)C(=O)N[C@@H](CCC(N)=O)C(=O)N[C@@H](CCCCN)C(=O)N[C@@H](CCC(N)=O)C(=O)N[C@@H](CCC(N)=O)C(=O)N[C@@H](C)C(=O)N[C@@H](CCCCN)C(=O)N[C@H](C(=O)N[C@@H](CC(N)=O)C(=O)N[C@@H](C)C(=O)N[C@@H](CCCCN)C(=O)N[C@H](C(=O)N[C@@H](CC(C)C)C(=O)N[C@@H](C)C(=O)N[C@@H](CCCNC(=N)N)C(=O)N[C@H](C(N)=O)C(C)C)[C@@H](C)CC)[C@@H](C)O)C(=O)O [compound 12] (H-FTLSLDVPTKIK([γGlu-Palmitoyl])QKLLKQEKQRKQKQQAKTNAKILARV-NH2) | > 1000 | 41.8 | 0.09 |  | 
4 | B1 |  |  |  | > 1000 | 7.54
5 | B2 |  |  |  | > 1000 | 25.6
